Assay [1] concerns Thromboxane A2 Synthetase. The experiment in a line: Determination of thromboxane A2 synthetase inhibitory activity (lysed horse platelets, [1-14C]-arachidonic acid conversion, TLC/scintillation counting). It is filed as biochemical. The conditions noted are these: concentration of active compound required to reduce the enzyme activity by 50%; horse platelet lysate, 3 min at 37°C. Here is the method: The active compound was dissolved in a suitable solvent at a concentration of 5 mg/ml, and 20 µl added to 0.8 ml of 100 mM Tris buffer (pH 7.5). The platelets from 5 ml of horse PRP were centrifuged and resuspended in 100µl of Tris buffer. After lysis by sonication or freeze thawing, the platelet suspension was added to the solution of active compound and equilibrated for 5 min at room temperature. Then 300 ng (50 nCi) of [1-^14C]-arachidonic acid, dissolved in 100 µl Tris buffer, was added and the mixture incubated for 3 min at 37°C. The reaction was stopped with 50 ul 2N HCl and the products extracted with 1.5 volumes ethyl acetate by whirling for 30 seconds. 1 ml saturated NaCl was added to the aqueous phase to prevent emulsion formation. […] The plate was developed in chloroform, methanol, acetic acid, water (90:8:1:0.8), dried and then visualised by autoradiography for 2-3 days. […] The concentration of active compound required to reduce the enzyme activity by 50% (ED50) was established.

Assay [2] concerns Thromboxane A2 Synthetase. The experiment in a line: Duration of action of thromboxane A2 synthetase inhibitors in vivo (oral dosing, thromboxane A2 in serum of clotted blood by RIA). More on the design: species or system N.Z. male rabbits. The following applies: rabbit, period over which thromboxane A2 concentration is depressed relative to controls. Here is the method: N.Z. male rabbits weighing 2.5 kg are anaesthetized with sodium pentobarbitone and chloralose and one carotoid artery is cannulated. Blood samples (lml) are taken for incubation; two as controls and one, adding 10 µg indomethacin, as a blank. After each sample is taken the cannula is flushed with saline. The active compound is then administered orally and further samples at half hour intervals for five to eight hours. The blood samples for the controls and the active compound are incubated in glass tubes for 45 minutes at 37°C to clot the blood. Indomethacin is added and the tubes centrifuged to separate the serum which is pipetted off for RIA analysis to determine the concentration of thromboxane A2. The period of time over which the inhibitor depressed the concentration of thromboxane A2 relative to the controls is then determined.

≈ marks a conversion by molar mass, not a printed value. Counter-ions that a name gives are not always drawn.

In turn, `Cl.O=C(O)c1ccc(Cn2ccnc2)c(Cl)c1` [Example 1, 1-(4-Carboxy-2-chlorobenzyl)imidazole hydrochloride] returned an ED50 in assay [1] of 6.6 µg/mL. In assay [2] (dose of 160 mg/kg), the duration of action entry is listed as “at least 5 hours”.

Molecule `Cl.O.O=C(O)C=Cc1ccc(Cn2ccnc2)c(Br)c1` [Example 6, 3-[3-Bromo-4-(imidazol-1-ylmethyl)phenyl]prop-2-enoic acid hydrochloride hydrate] yielded an ED50 in assay [1] of 0.015 µg/mL.

Consider `Cl.O=C(O)/C=C/c1ccc(Cn2ccnc2)c(Cl)c1` [Example 3, (E)-3-[3-Chloro-4-(imidazol-1-ylmethyl)phenyl] prop-2-enoic acid hydro chloride], for which the ED50 in assay [1] worked out at 0.05 µg/mL. In addition, the duration of action entry in assay [2] (dose of 2 mg/kg) is recorded as “at least 7 hours”.

In assay [1], `O=C(O)c1ccc(C=CCn2ccnc2)cc1Cl` [Example 10, 1-[3-(4-Carboxy-3-chlorophenyl)prop-2-enyl]imidazole hydrochloride hemihydrate] gave an ED50 of 0.35 µg/mL.

For `O=C(O)CCc1ccc(Cn2ccnc2)c(Cl)c1` [Example 4, 3-[3-Chloro-4-(imidazol-1-ylmethyl)phenyl]proeanoic acid hydrochloride], the ED50 in assay [1] amounted to 0.08 µg/mL.

In turn, `CCOC(=O)/C=C/c1ccc(Cn2ccnc2)c(Cl)c1` [Example 2, Ethyl (E)-3-[3-chloro-4-(imidazol-1-ylmethyl)phenyl]prop-2-enoate] came in with an ED50 in assay [1] of 0.5 µg/mL (≈ 1.72 µM).

The record behind these values is patent publication EP0106060A2, “Imidazole derivatives and salts thereof, their synthesis, and pharmaceutical formulations” (THE WELLCOME FOUNDATION LIMITED, priority 1982, dated 1984).
